Consider five compounds from patent US8614366B2, “Methods for genetic plant transformation using water-soluble fullerene derivatives” (priority 2009, dated 2013).

One experiment relates to peanut. As to conditions: increased from 3.9% with no antioxidant; cited from earlier work.
The next experiment concerns CAMBIA 1302 plasmid. In words: DNA binding by agarose gel electrophoresis (gel mobility). As to conditions: 50 ng plasmid, 100-300 ng fullerene compound, preincubated 15-30 minutes. The procedure:
Each tube was allowed to bind for 15-30 minutes and then place on an agarose gel. […] After running the gel, the bands were visualized using post-staining with commercial SBER SAFE™ 10000× stain.
DNA binding was measured at different fullerene nanoparticle/DNA ratios. The DNA-binding ability of the fullerene test compounds 1, 2, 4, and 6 was examined by direct DNA binding and agarose gel electrophoresis. […] In each case, 50 ng plasmid DNA was preincubated for 30 minutes with 100-300 nG fullerene compound (FIG. 8). The DNA binding titration of plasmid pCAMBIA 1302 with compound 6 was carried with 50 nG pCAMBIA 1302 and various concentrations (93-3000 nG per 10 microL). Results shown in FIG. 8 indicate optimal binding at a concentration of ˜5-6 equivalents fullerene per DNA. FIG. 8 Lane 1: 50 ng of DNA Plasmid DNA only, Lane 2: 50 ng of DNA Plasmid DNA+3000 ng compound 6 (50 equiv), Lane 3: 50 ng of DNA Plasmid DNA+1500 ng compound 6 (25 equiv), Lane 4: 50 ng of DNA Plasmid DNA+750 ng compound 6 (12 equiv), Lane 5: 50 ng of DNA Plasmid DNA+375 ng compound 6 (6 equiv), Lane 6: 50 ng of DNA Plasmid DNA+187 ng compound 6 (3 equiv), Lane 7: 50 ng of DNA Plasmid DNA+93 ng compound 6 (1.5 equiv). Compound 6 stock solution (0.3 mg/mL) was diluted with TE buffer and 10 microL each fullerene dilution was reincubated with plasmid for […] to loading on the gel.

The test system of another experiment is tobacco protoplast cells. The experiment can be described thus: Fullerene-enhanced electroporation, GFP expression. Format: cell-based, Nicotiana tabacum. As to conditions: tobacco protoplasts, GFP DNA, fluorescence microscope; without fullerene no GFP expression. The procedure:
One embodiment of the invention is called fullerene-enhanced electroporation. The method comprises (1) mixing fullerene derivative solution with the DNA of interest, (2) addition of fullerene derivative/DNA solution to plant cells or plant protoplasts, and (3) treatment of the mixture in a Gene Pulser cuvette or similar electroporation apparatus for a few minutes. Suspension was then incubated for 2-3 hours or overnight to allow DNA transfer and gene expression to take place. […] On the left is the light microscope picture showing tobacco protoplast cells after electroporation. […] Experiments to test the fullerene nanoparticles for transformation ability used tobacco protoplasts for transient assays. Sterile suspension cultures (5% w/v) of tobacco (Nicotiana tabacum) were grown in MS basal salts media. Suspension cells were incubated in enzyme solution (0.6 M mannitol, 10 mM MES, 1% Cellulase, 0.2% pectinase) at pH 5.7 in the dark, at 24° C. overnight. After incubation, protoplasts were passed through […] nylon mesh, washed and protoplasts pelleted by centrifugation. Protoplasts were resuspended in the appropriate media required for transformation studies. Electroporation is the process where cells are mixed with a DNA construct and then briefly exposed to pulses of high voltage. […]

“Also recorded” adds a separate entry of the source.

Turning to `N[C@@H](CCC(=O)N[C@@H](CS)C(=O)NCC(=O)O)C(=O)O` [glutathione], the Transformation frequencies in the experiment on peanut is on record as 14.6%. As for `O=[Se](O)O` [selenite], in the experiment on peanut, the Transformation frequencies was 12.4%. With FC4S [Compound 2], in the experiment on CAMBIA 1302 plasmid, the “DNA binding (change in gel mobility)” value is “no DNA binding effect; also recorded: no binding to DNA”. Turning to polyhydroxy-C60 [Compound 1], in the experiment on CAMBIA 1302 plasmid, the “DNA binding (change in gel mobility)” value is “no DNA binding effect; also recorded: no binding to DNA”. For the same compound, the “GFP expression after electroporation” value in the experiment with tobacco protoplast cells was “gene insertion and GFP expression”. For tocopherol, the Transformation frequencies in the experiment with peanut is given as 10.3%.
